# US20130225629A1, “TARGETING PI3K/MTOR SIGNALLING AND NEUTROPHIL RECRUITMENT FOR TREATMENT OF ENTERITIS” (THE UNIVERSITY OF NORTH CAROLINA AT CHAPEL HILL, priority 2012, published 2013)
# What was measured:
# C. jejuni [1] = test: C. jejuni induced colitis, histological intestinal inflammation score; format: in vivo, mice; conditions: AS252424 10 mg/kg i.p. daily, 6 days, vs vehicle
# From the text: All animal protocols were approved by the Institutional Animal Care and Use Committee of the University of North Carolina at Chapel Hill (Chapel Hill, N.C., United States of America). Germ-free 8 to 12 week old II10^−/−; NF-κBEGFP (129/SvEv; C57BL/6 mixed background) mice were transferred from germ-free isolators and immediately gavaged with 10^9 C. jejuni cfu/mouse (strain 81-176 (Korlath et al., 1985)). Mice were then housed under Specific Pathogen-Free (SPF) conditions and sacrificed at 5 or 12 days. […] Intestinal inflammation was scored by evaluating the degree of lamina propria immune cell infiltration, goblet cell depletion, architectural distortion, as well as crypt hyperplasia, ulceration, and abscesses using a score from 0-4. […] Cecal and colonic inflammation induced by S. typhimurium was evaluated using a score from 0-13 as described. […]
# All animal protocols were approved by the Institutional Animal Care and Use Committee of the University of North Carolina at Chapel Hill (Chapel Hill, N.C., United States of America). […] Histological images were acquired using a DP71 camera and DP Controller 3.1.1.276 (Olympus, Center Valley, Pa., United States of America), and intestinal inflammation was scored on a scale of 0 to 4 as described before (Lippert et al., 2009; Sun et al., 2012). […]
# C. jejuni [2] = test: FISH for C. jejuni in colon; format: in vivo; conditions: AS252424-treated mice
# Method: Cy3-tagged 5′[…]3′ (SEQ ID NO: 1; Poppert et al., 2008) was used to probe the presence of C. jejuni. Deparaffinized, formalin-fixed 5 μm thick sections were incubated for 15 minutes in lysozyme (300,000 Units/ml lysozyme; Sigma-Aldrich, St. Louis, Mo., United States of America) buffer (25 mM Tris pH 7.5, 10 mM EDTA, 585 mM sucrose, and 0.3 mg/ml sodium taurocholate) at room temperature and hybridized overnight at 46° C. in hybridization chambers with the oligonucleotide probe (final concentration of 5 ng/μl in a solution of 30 percent formamide, 0.9 M sodium chloride, 20 mM Tris pH 7.5, and 0.01% sodium dodecyl sulfate). Tissue sections were washed for 20 minutes at 48° C. in washing buffer (0.9 M sodium chloride, 20 mM Tris pH 7.5) and once in distilled water for 10 seconds, dried at 46° C., mounted with DAPI mount media, and imaged using a Zeiss (Carl Zeiss, Thornwood, N.Y., United States of America) LSM710 Spectral Confocal Laser Scanning Microscope system with ZEN 2008 software. Acquired images were analyzed using BioimageXD. (Kankaanpaa et al., 2006). […]
# Cy3-tagged 5′[…]3′ (SEQ ID NO: 1) was used to probe the presence of C. jejuni in the intestinal tissue sections as previously described (Sun et al., 2012). […] Acquired images were analyzed using BioimageXD (Kankaanpaa et al., 2006).
compound,measurement,setting,value
O=C1NC(=O)/C(=C/c2ccc(-c3ccc(F)cc3O)o2)S1 [AS252424],C. jejuni-induced colitis,C. jejuni [1],reduced
same,"C. jejuni in colon (FISH, confocal)",C. jejuni [2],barely detectable
